Results published in US12161754B2, “Abuse deterrent morphine sulfate dosage forms” (Purdue Pharma L.P., priority 2017, dated 2024).
Where a name gives a salt, the structure may show the parent alone.

Test: Simulated smoking tests (Example 14)
Settings: API alkalinized with excess NaOH, heated with a Sterno burner for 15 minutes

In the case of `CN1CC[C@]23c4c5ccc(O)c4O[C@H]2[C@@H](O)C=C[C@H]3[C@H]1C5` [Morphine sulfate pentahydrate, morphine hemi(sulfate pentahydrate)], the API volatilized was “about 21%”.
